Reference: ChEMBL document CHEMBL1201862, “PubChem BioAssay data set” (2004)
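In this assay, cells in 96-well plates receive the compound at five concentrations for 48 hours. Endpoints are linearly interpolated between the surrounding concentrations. GI50 is the concentration that inhibits growth by half.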 Active and inactive are the calls of the source. Cut-off read from the data, not from the text of the source: active = GI50 up to about 1.1 µM and inactive = higher.

Experiments:
Experiment in all cases: NCI-60 cell line screen, 48 h
[1] = test system: DLD-1
[2] = test system: DMS-114
[3] = test system: HOP-18
[4] = test system: KM-20L2
[5] = test system: LXFL 529
[6] = test system: M19-MEL
[7] = test system: RXF 631
[8] = test system: SNB-78
[9] = test system: XF498

CCCCCCCCCCCC(=O)c1c(O)cccc1O
GI50 [1]: 17.8 µM (inactive)
GI50 [2]: 19.2 µM (inactive)
GI50 [3]: 16.2 µM (inactive)
GI50 [4]: 21.7 µM (inactive)
GI50 [5]: 18.5 µM (inactive)
GI50 [6]: 18.8 µM (inactive)
GI50 [7]: 18.7 µM (inactive)
GI50 [8]: 21.8 µM (inactive)
GI50 [9]: 18.3 µM (inactive)

Cc1c(C(=O)Nc2ccc(Cl)c(C(F)(F)F)c2)oc2cc(O)ccc2/c1=N\NC(N)=S
GI50 [1]: > 100 µM (inactive)
GI50 [2]: > 100 µM (inactive)
GI50 [3]: > 100 µM (inactive)
GI50 [4]: > 100 µM (inactive)
GI50 [5]: > 100 µM (inactive)
GI50 [6]: > 100 µM (inactive)
GI50 [8]: > 100 µM (inactive)
GI50 [9]: > 100 µM (inactive)

Oc1cc2cc(-c3ccccc3)[nH]c2c2ccccc12
GI50 [1]: 32 µM (inactive)
GI50 [2]: 13.6 µM (inactive)
GI50 [3]: 32.7 µM (inactive)
GI50 [4]: > 96.2 µM (inactive)
GI50 [5]: 24.5 µM (inactive)
GI50 [6]: 15.5 µM (inactive)
GI50 [7]: 22.7 µM (inactive)
GI50 [8]: 54.6 µM (inactive)
GI50 [9]: 1.63 µM (inactive)

COc1cc(/C=N\c2ccc(C(C)C)cc2)cc(OC)c1OC
GI50 [1]: > 100 µM (inactive)
GI50 [2]: 49.5 µM (inactive)
GI50 [3]: > 100 µM (inactive)
GI50 [4]: > 100 µM (inactive)
GI50 [5]: 99.5 µM (inactive)
GI50 [6]: > 92 µM (inactive)
GI50 [8]: > 100 µM (inactive)
GI50 [9]: > 100 µM (inactive)

CC(C)(C)C1CCC2(CC1)CCN(CCCN1CCOCC1)CC2
GI50 [1]: 24.4 µM (inactive)
GI50 [2]: 16.5 µM (inactive)
GI50 [4]: 2.18 µM (inactive)
GI50 [5]: 8.36 µM (inactive)
GI50 [6]: 12.5 µM (inactive)
GI50 [7]: 14.4 µM (inactive)
GI50 [8]: 38.5 µM (inactive)

Clc1ccc(C2=Nc3ccccc3SC(c3cccs3)C2)cc1 (stereo unspecified)
GI50 [1]: 10.1 µM (inactive)
GI50 [2]: 15.2 µM (inactive)
GI50 [3]: 18.6 µM (inactive)
GI50 [4]: 16.6 µM (inactive)
GI50 [5]: 17.5 µM (inactive)
GI50 [6]: 15.2 µM (inactive)
GI50 [8]: 28.9 µM (inactive)
GI50 [9]: 16.1 µM (inactive)

COc1nc(OC)c2c(=O)oc(-c3ccccc3)cc2n1
GI50 [2]: > 100 µM (inactive)
GI50 [4]: > 100 µM (inactive)
GI50 [5]: > 100 µM (inactive)
GI50 [6]: > 100 µM (inactive)
GI50 [8]: > 100 µM (inactive)

COc1ccc2c(c1)CC1NC2Cc2ccccc21 (stereo unspecified)
GI50 [1]: > 100 µM (inactive)
GI50 [2]: > 100 µM (inactive)
GI50 [3]: > 100 µM (inactive)
GI50 [4]: > 100 µM (inactive)
GI50 [5]: > 100 µM (inactive)
GI50 [6]: > 100 µM (inactive)
GI50 [8]: > 100 µM (inactive)
GI50 [9]: > 100 µM (inactive)

N=C(N)NNC(=O)CCCCCCCC(=O)NNC(=N)N
GI50 [1]: > 100 µM (inactive)
GI50 [2]: 62.7 µM (inactive)
GI50 [4]: > 100 µM (inactive)
GI50 [5]: > 100 µM (inactive)
GI50 [6]: > 100 µM (inactive)
GI50 [7]: > 100 µM (inactive)
GI50 [8]: > 100 µM (inactive)

CCOC(=O)C1=C(C)NC(=O)NC1c1ccc(OC)cc1OC (stereo unspecified)
GI50 [1]: > 100 µM (inactive)
GI50 [2]: > 100 µM (inactive)
GI50 [3]: > 100 µM (inactive)
GI50 [4]: > 100 µM (inactive)
GI50 [5]: > 100 µM (inactive)
GI50 [6]: > 100 µM (inactive)
GI50 [8]: > 100 µM (inactive)
GI50 [9]: > 100 µM (inactive)

CCOC(=O)c1cc(/C=C/C(C)=C/C(=O)OC)oc1C
GI50 [1]: > 100 µM (inactive)
GI50 [2]: > 100 µM (inactive)
GI50 [4]: > 100 µM (inactive)
GI50 [5]: > 100 µM (inactive)
GI50 [6]: > 100 µM (inactive)
GI50 [8]: > 100 µM (inactive)
GI50 [9]: > 100 µM (inactive)

COc1cc(NS(=O)(=O)c2ccc(C)cc2)c2nccnc2c1
GI50 [1]: 30.3 µM (inactive)
GI50 [2]: 14.6 µM (inactive)
GI50 [3]: 93.5 µM (inactive)
GI50 [4]: 32.1 µM (inactive)
GI50 [5]: 20.8 µM (inactive)
GI50 [6]: 19.5 µM (inactive)
GI50 [9]: 29 µM (inactive)

CCOC(=O)C1=C(Nc2cccc3ccccc23)OCC1=O
GI50 [1]: > 100 µM (inactive)
GI50 [4]: > 100 µM (inactive)
GI50 [5]: > 100 µM (inactive)
GI50 [7]: > 100 µM (inactive)
GI50 [8]: > 100 µM (inactive)
GI50 [9]: > 100 µM (inactive)

CC(=O)NC(CCCN(Cc1ccccc1)C(=O)NCCCl)C(=O)NCc1ccccc1 (stereo unspecified)
GI50 [1]: > 100 µM (inactive)
GI50 [2]: > 100 µM (inactive)
GI50 [3]: > 100 µM (inactive)
GI50 [4]: > 100 µM (inactive)
GI50 [5]: > 100 µM (inactive)
GI50 [6]: > 100 µM (inactive)
GI50 [8]: > 100 µM (inactive)

Cc1ccc(S(=O)(=O)N/N=C(\c2nc3ccc(Cl)cc3nc2O)C(O)c2cccc([N+](=O)[O-])c2)cc1 (stereo unspecified)
GI50 [1]: > 100 µM (inactive)
GI50 [2]: > 100 µM (inactive)
GI50 [3]: > 100 µM (inactive)
GI50 [4]: > 100 µM (inactive)
GI50 [5]: > 100 µM (inactive)
GI50 [6]: > 100 µM (inactive)
GI50 [7]: > 100 µM (inactive)
GI50 [8]: > 100 µM (inactive)
GI50 [9]: > 100 µM (inactive)

O=C1C=CC(=O)c2nc3c(cc21)CCC3
GI50 [1]: 18.7 µM (inactive)
GI50 [2]: 18.3 µM (inactive)
GI50 [3]: 14.5 µM (inactive)
GI50 [5]: 15.5 µM (inactive)
GI50 [6]: 17.2 µM (inactive)
GI50 [7]: > 100 µM (inactive)
GI50 [8]: 18.5 µM (inactive)
GI50 [9]: 18.6 µM (inactive)

Brc1cccc(C2SCc3nc4ccccc4n32)c1 (stereo unspecified)
GI50 [1]: 12.9 µM (inactive)
GI50 [2]: 13.7 µM (inactive)
GI50 [5]: 20.6 µM (inactive)
GI50 [6]: 18.2 µM (inactive)
GI50 [8]: 28.3 µM (inactive)

Cc1ccc([S+](c2ccccc2)c2cc(C)ccc2C)cc1 (stereo unspecified)
GI50 [1]: 1.81 µM (inactive)
GI50 [2]: 1.08 µM (active)
GI50 [3]: 1.38 µM (inactive)
GI50 [6]: 1.62 µM (inactive)

N=C(N)N/N=C/c1c[nH]c2ccccc12
GI50 [1]: > 100 µM (inactive)
GI50 [2]: 81.8 µM (inactive)
GI50 [3]: > 100 µM (inactive)
GI50 [4]: > 100 µM (inactive)
GI50 [5]: > 100 µM (inactive)
GI50 [8]: > 100 µM (inactive)

CN(C)CCNC(=O)c1cccc2ccc(-c3ccncc3)nc12
GI50 [1]: 2.48 µM (inactive)
GI50 [2]: 2.96 µM (inactive)
GI50 [3]: 3.47 µM (inactive)
GI50 [6]: 1.89 µM (inactive)
GI50 [8]: 7.24 µM (inactive)

N=C(N)N/N=C(/CC1OC(=O)c2ccccc21)c1ccc2ccccc2c1 (stereo unspecified)
GI50 [1]: 14 µM (inactive)
GI50 [2]: 12.9 µM (inactive)
GI50 [3]: 18.5 µM (inactive)
GI50 [4]: 24.7 µM (inactive)
GI50 [5]: 14.6 µM (inactive)
GI50 [6]: 16.2 µM (inactive)
GI50 [7]: 21.4 µM (inactive)
GI50 [8]: > 100 µM (inactive)
GI50 [9]: 7.71 µM (inactive)

CCOC(=O)/C(=C\c1ccccc1)C(=O)O
GI50 [2]: > 100 µM (inactive)
GI50 [4]: > 100 µM (inactive)
GI50 [6]: > 100 µM (inactive)
GI50 [8]: > 100 µM (inactive)
GI50 [9]: > 100 µM (inactive)

CC1=C[C@H]2c3c([nH]c4ccccc34)C(c3c[nH]c4ccccc34)[C@H]2CC1 (stereo partly specified)
GI50 [1]: 6.43 µM (inactive)
GI50 [2]: 5.74 µM (inactive)
GI50 [3]: 11.7 µM (inactive)
GI50 [5]: 4.29 µM (inactive)
GI50 [6]: 10.3 µM (inactive)
GI50 [7]: 3.57 µM (inactive)
GI50 [8]: 3.53 µM (inactive)

CCC12C=CCN3CC[C@]4(C(=C(C(=O)OC)[C@@H]1Nc1ccn(C5OC(COC(C)=O)C(OC(C)=O)C5OC(C)=O)c(=O)n1)Nc1ccccc14)C32 (stereo partly specified)
GI50 [1]: 4.53 µM (inactive)
GI50 [3]: 6.92 µM (inactive)
GI50 [4]: 4.66 µM (inactive)
GI50 [5]: 4.42 µM (inactive)
GI50 [6]: 3.98 µM (inactive)
GI50 [8]: 5.42 µM (inactive)
GI50 [9]: 5.74 µM (inactive)

O=C(/C=C/c1ccc[nH]1)c1ccccc1
GI50 [1]: > 100 µM (inactive)
GI50 [2]: > 100 µM (inactive)
GI50 [3]: 40.2 µM (inactive)
GI50 [4]: > 100 µM (inactive)
GI50 [5]: > 100 µM (inactive)
GI50 [6]: > 100 µM (inactive)
GI50 [8]: > 100 µM (inactive)

COc1cc(/C=C\c2ccc(Br)cc2)cc(OC)c1OC
GI50 [1]: 0.00324 µM (active)
GI50 [2]: 0.000986 µM (active)
GI50 [3]: 0.000721 µM (active)
GI50 [4]: 0.00033 µM (active)
GI50 [5]: 0.000891 µM (active)
GI50 [6]: 0.00524 µM (active)
GI50 [7]: 0.01 µM (active)
GI50 [8]: 0.000305 µM (active)
GI50 [9]: 0.000678 µM (active)

Nc1n[n+]([O-])c2ccccc2[n+]1[O-] [TIRAPAZAMINE]
GI50 [2]: 44.4 µM (inactive)
GI50 [5]: > 100 µM (inactive)
GI50 [6]: 95.9 µM (inactive)
GI50 [7]: > 100 µM (inactive)
GI50 [8]: > 100 µM (inactive)
GI50 [9]: 44.4 µM (inactive)
